Measured values published in patent US11213527B2, “Inhibitory effect of low molecular weight compound on cancer and fibrosis” (NATIONAL UNIVERSITY CORPORATION TOTTORI UNIVERSITY, priority 2014, dated 2022).

Tests used:
[1] = tested on: CD44-positive HuH7 cells; test: Liver cancer model mice, CD44-positive HuH7 cells subcutaneously transplanted; assay type: in vivo; conditions: for change in the body weight: 50 mg/kg IC-2 or 30 mg/kg 5-FU intraperitoneally every 3 days
Protocol: CD44-positive HuH7 cells were subcutaneously transplanted into mice. The mice were then divided into 3 groups (DMSO group: 5 mice; 5-FU group: 4 mice; and IC-2 group: 4 mice). Subsequently, 30 mg/kg of 5-FU, 50 mg/kg of IC-2, or DMSO (as a control), which was a solvent for each chemical, was intraperitoneally administered every 3 days. The body weight and the tumor length and width of each mouse were measured every 3 days. The tumor volume was calculated by using the following equation: Tumor volume=Length×(Width)^2×0.5. The volume at Day 0 was used to normalize each tumor volume, and then a graph was created. To sufficiently evaluate an effect of 5-FU, the dosage that was usually […] in research articles was doubled to set a 5-FU dose. The IC-2 concentration corresponding to a concentration at which a Wnt/β-catenin signal was inhibited in vitro was calculated. Then, the concentration was doubled to set an IC-2 dose.

[2] = tested on: liver cancer cell line HepG2 (CD133); test: FACS analysis of CD133-expressing cells; assay type: cell-based, human; conditions: 0.5 μM 5-FU, 50 μM IC-2, two days, DMSO 57.1%
Protocol: A liver cancer cell line HepG2 was seeded at 1.5×10^6 cells/dish on 10-cm dishes. Next, the cells were cultured at 37° C. and 5% CO2. After 24 hours, 1% DSMO, 0.5 μM 5-FU, or 50 μM IC-2 was added thereto and the cells were further incubated. Then, the cells were harvested at two days after the chemical treatment. Meanwhile, the cells were blocked in 0.5% BSA/0.5% FBS/2 mM EDTA/PBS. Subsequently, 50 μL of an anti-human CD133 monoclonal antibody (Miltenyi Biotec) was added to 500 μL of a cell suspension and the resulting mixture was resuspended and incubated at 4° C. for 10 min to carry out a primary antibody reaction. After the primary antibody reaction, the cells were washed 3 times with 1 mL of PBS. After 1.0 μg of an Alexa 488-labeled goat anti-mouse IgG antibody (Life Technologies Corp., Carlsbad, Calif., USA) was added, the mixture was resuspended and a secondary antibody reaction was performed in a dark room for 10 min at 4° C. Thereafter, the cells were washed twice with 5% FBS/2 mM EDTA/PBS and once with 5% FBS/2 mM EDTA/DEME. Next, the cells were resuspended in 500 μL of 5% FBS/2 mM EDTA/PBS. Then, 1 μg/mL of propidium iodide was added thereto. After that, the mixture was made to pass through a tube with a 40-μm mesh filter. Finally, a Beckman Coulter-MoFlo XDP was used to analyze CD133-expressing cells.

[3] = tested on: Wnt/β-catenin signal; test: Luciferase assay in HuH7 cells stably expressing pTCF4-CMVpro-Luc; assay type: cell-based; conditions: HuH7 reporter cells; two days after treatment
Protocol: First, 30 μg of a pTCF4-CMVpro-Luc was added to 5×10^6 HuH7 cells and the plasmid was introduced using a Cellject Pro (Thermo, Massachusetts, USA) (at 250 V, 1500 μF). Twenty-four hours after the gene introduction, 2 μg/mL of puromycin was added. Then, the cells were selected while a medium was changed every 3 to 5 days. It was observed that colonies of the pTCF4-CMVpro-Luc-containing HuH7 cells were formed at 20 days after initiation of the selection. A cloning ring, which was manufactured such that an end portion of a blue tip was cut, (the bottom edge of the cloning ring was provided with vaseline), was then used to surround one of the colonies formed. Subsequently, 30 μL of a 0.25% Trypsin/1 mM EDTA solution, which was prepared by diluting a stock solution 5-fold with PBS, was added to detach and collect the cells. […]
Next, a luciferase assay was conducted. […] Subsequently, 10 μL of the cell lysate prepared by using PLB in the 24-well plate was added to the tube, and the luciferase activity was measured by using a MiniLumat LB 9506 (Berthold Technologies, Bad Wildbad, German).
First, the HuH7 cells that were at 70 to 90% confluency and stably expressed the pTCF4-CMVpro-Luc were collected, and the 1×10^4 cells were seeded in each well of a 96-well plate (FALCON). […] Then, a fluorescence plate reader Infinite F500 (TECAN, Zurich, Switzerland) was used to measure luciferase activity.

[4] = tested on: CD44-expressing HSC2 cells; test: Inhibitory effect on cancer stem cells in squamous cell carcinoma (CD44 FACS); assay type: cell-based, human; conditions: 5-FU 0.5 μM, IC-2 25 μM, PN-3-13 7.5 μM, HC-1 50 μM, 48 hours, no treatment 83.9%
Protocol: First, 5×10^5 of HSC2 cells were plated on a 10-cm dish. After 24 hours, the cells were treated with 5-FU (0.5 μM), IC-2 (25 μM), PN-3-13 (7.5 μM), or HC-1 (50 μM). Also, some of the cells were prepared without low-molecular-weight compound treatment (0 μM). After additional 48 hours, the cells were harvested. An anti-human CD44 antibody (Abcam Ltd., Cambridge, UK) was used as a primary antibody and an Alexa 488-labeled goat anti-mouse IgG antibody (Life Technologies Corp., Carlsbad, Calif., USA) was then used. After that, analysis was performed by using a cell sorter, BD bioscience FACS Aria (BD Biosciences, CA, USA). Note that the concentration of each low-molecular-weight compound was determined on the basis of the IC50 concentration at 48 hours in a WST assay.

## O=c1[nH]cc(F)c(=O)[nH]1 [5-FU, reference compound]
[1]
  change in the body weight: no observable change in the body weight
[2]
  proportion of the CD133-expressing cells: 33.3%
[3]
  inhibitory effect on a Wnt/β-catenin signal (luciferase activity): exerted no inhibitory effect
[4]
  proportion of CD44-expressing cells: 83.3%

## O=C1[C@H](Cc2ccccc2)N2C(=O)CCN(C(=O)NCc3ccccc3)[C@H]2CN1Cc1cccc2ccccc12 [IC-2]
[1]
  change in the body weight: no observable change in the body weight
[1]; 50 mg/kg IC-2 vs 30 mg/kg 5-FU intraperitoneally every 3 days
  therapeutic effect of treating a malignant tumor (tumor volume): significantly higher therapeutic effect of treating a malignant tumor than that of 5-FU
[2]
  proportion of the CD133-expressing cells: 1.45%
[3]
  inhibitory effect on a Wnt/β-catenin signal (luciferase activity): exerted an inhibitory effect
[4]
  proportion of CD44-expressing cells: 71.4%
